# Laboratory results as given in ChEMBL document CHEMBL1201862, “PubChem BioAssay data set” (2004).
#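 Results reflect a 48-hour exposure of cells in 96-well plates to compound at five concentrations. At the GI50, growth is halved.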 The source made the active and inactive calls. Cut-off read from the data, not from the text of the source: active = GI50 up to about 1.1 µM and inactive = higher.
# Assays:
# Experiment in all cases: inhibition of tumour cell growth, NCI panel, 48 h
# SF-295 = system: SF-295
# TK-10 = system: TK-10
# K562 = system: K562
# NCI-H460 = system: NCI-H460
# T47D = system: T47D
# OVCAR-8 = system: OVCAR-8
# UACC-62 = system: UACC-62
# CAKI-1 = system: CAKI-1
# MOLT-4 = system: MOLT-4
# M14 = system: M14
# RXF 393 = system: RXF 393
# SW-620 = system: SW-620
# HT-29 = system: HT-29
# 786-0 = system: 786-0
# HCT-116 = system: HCT-116
# SNB-75 = system: SNB-75
# UACC-257 = system: UACC-257
# OVCAR-5 = system: OVCAR-5
# SNB-19 = system: SNB-19
# A498 = system: A498
# CCRF-CEM = system: CCRF-CEM
# OVCAR-3 = system: OVCAR-3
# EKVX = system: EKVX
# OVCAR-4 = system: OVCAR-4
# HCC 2998 = system: HCC 2998
# KM12 = system: KM12
# U-251 = system: U-251
# HOP-62 = system: HOP-62
# MDA-MB-435 = system: MDA-MB-435
# MCF7 = system: MCF7
# MDA-MB-231 = system: MDA-MB-231
# HOP-92 = system: HOP-92
# Malme-3M = system: Malme-3M
# DU-145 = system: DU-145
# SF-268 = system: SF-268
# ACHN = system: ACHN
# SK-OV-3 = system: SK-OV-3
# SK-MEL-5 = system: SK-MEL-5
# LOX IMVI = system: LOX IMVI
# PC-3 = system: PC-3
# NCI-H226 = system: NCI-H226
# HCT-15 = system: HCT-15
# SK-MEL-28 = system: SK-MEL-28
# BT-549 = system: BT-549
# RPMI-8226 = system: RPMI-8226
# NCI/ADR-RES = system: NCI/ADR-RES
# NCI-H23 = system: NCI-H23
# SK-MEL-2 = system: SK-MEL-2
# SR = system: SR
# SN12C = system: SN12C
# MDA-N = system: MDA-N
# IGROV-1 = system: IGROV-1
# A549 = system: A549
# UO-31 = system: UO-31
# COLO 205 = system: COLO 205
smiles,measurement,setting,value
COc1ccc(/C=N/NC(=O)c2ccccc2Nc2ccccc2C(=O)N/N=C/c2ccc(OC)cc2)cc1,GI50,SF-295,> 100 µM (inactive)
same,GI50,TK-10,> 100 µM (inactive)
same,GI50,K562,> 100 µM (inactive)
same,GI50,NCI-H460,> 100 µM (inactive)
same,GI50,T47D,> 100 µM (inactive)
same,GI50,OVCAR-8,> 100 µM (inactive)
same,GI50,UACC-62,> 100 µM (inactive)
same,GI50,CAKI-1,> 100 µM (inactive)
same,GI50,MOLT-4,> 100 µM (inactive)
same,GI50,M14,> 100 µM (inactive)
same,GI50,RXF 393,> 100 µM (inactive)
same,GI50,SW-620,> 100 µM (inactive)
same,GI50,HT-29,> 100 µM (inactive)
same,GI50,786-0,> 100 µM (inactive)
same,GI50,HCT-116,> 100 µM (inactive)
same,GI50,SNB-75,> 100 µM (inactive)
same,GI50,UACC-257,> 100 µM (inactive)
same,GI50,OVCAR-5,> 100 µM (inactive)
same,GI50,SNB-19,> 100 µM (inactive)
same,GI50,A498,> 100 µM (inactive)
same,GI50,CCRF-CEM,> 100 µM (inactive)
same,GI50,OVCAR-3,> 100 µM (inactive)
same,GI50,EKVX,> 100 µM (inactive)
same,GI50,OVCAR-4,> 100 µM (inactive)
same,GI50,HCC 2998,> 100 µM (inactive)
same,GI50,KM12,> 100 µM (inactive)
same,GI50,U-251,> 100 µM (inactive)
same,GI50,HOP-62,> 100 µM (inactive)
same,GI50,MDA-MB-435,> 100 µM (inactive)
same,GI50,MCF7,> 100 µM (inactive)
same,GI50,MDA-MB-231,65.6 µM (inactive)
same,GI50,HOP-92,> 100 µM (inactive)
same,GI50,Malme-3M,> 100 µM (inactive)
same,GI50,DU-145,> 100 µM (inactive)
same,GI50,SF-268,> 100 µM (inactive)
same,GI50,ACHN,> 100 µM (inactive)
same,GI50,SK-OV-3,> 100 µM (inactive)
same,GI50,SK-MEL-5,> 100 µM (inactive)
same,GI50,LOX IMVI,> 100 µM (inactive)
same,GI50,PC-3,> 100 µM (inactive)
same,GI50,NCI-H226,> 100 µM (inactive)
same,GI50,HCT-15,> 100 µM
same,GI50,SK-MEL-28,> 100 µM (inactive)
same,GI50,BT-549,> 100 µM (inactive)
same,GI50,RPMI-8226,> 100 µM (inactive)
same,GI50,NCI/ADR-RES,> 100 µM (inactive)
same,GI50,NCI-H23,> 100 µM (inactive)
same,GI50,SK-MEL-2,> 100 µM (inactive)
same,GI50,SR,> 100 µM (inactive)
same,GI50,SN12C,> 100 µM (inactive)
same,GI50,MDA-N,> 100 µM (inactive)
same,GI50,IGROV-1,> 100 µM (inactive)
same,GI50,A549,> 100 µM (inactive)
same,GI50,UO-31,> 100 µM (inactive)
same,GI50,COLO 205,> 100 µM (inactive)
